Assay results: the supplement of paper PMC10307832

Experiments:
Experiment in all cases: relative viability (nuclei count vs DMSO), 5 days (fraction); higher = more cells survive
[1] = compound: C1=CC2=C(C=C(C(=C2N=C1)O)N=NC3=CC4=C(C=C3)C=C(C=C4)S(=O)(=O)O)S(=O)(=O)O + COc1cccc2cc(-c3nc([C@H]4CC[C@H](C(=O)O)CC4)n4ncnc(N)c34)[nH]c12 [OSI-027] (partner 0.5 µM)
Method in brief: (§1)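 Relative viability is defined as nuclei in treated wells over nuclei in vehicle wells. Duplicate plates were run and medians reported. Lung cancer cell lines in 1536-well plates were dosed by pin tool one day after seeding, with one drug or with a fixed anchor-drug dose plus five library-drug doses (not always all listed) in √10 steps, and nuclei were counted after 5 days.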

[2] = compound: C1=CC2=C(C=C(C(=C2N=C1)O)N=NC3=CC4=C(C=C3)C=C(C=C4)S(=O)(=O)O)S(=O)(=O)O + CS(=O)(=O)N1CCN(Cc2cc3nc(-c4cccc5[nH]ncc45)nc(N4CCOCC4)c3s2)CC1 [Pictilisib] (partner 1 µM)
Method in brief: as §1

[3] = compound: C1=CC2=C(C=C(C(=C2N=C1)O)N=NC3=CC4=C(C=C3)C=C(C=C4)S(=O)(=O)O)S(=O)(=O)O + C[C@]1(O)C[C@@H](c2nc(-c3ccc4ccc(-c5ccccc5)nc4c3)c3c(N)nccn32)C1 [Linsitinib] (partner 1 µM)
Method in brief: as §1

[4] = compound: C1=CC2=C(C=C(C(=C2N=C1)O)N=NC3=CC4=C(C=C3)C=C(C=C4)S(=O)(=O)O)S(=O)(=O)O + Cc1cc(Nc2cc(N3CCN(C)CC3)nc(Sc3ccc(NC(=O)C4CC4)cc3)n2)n[nH]1 [Tozasertib] (partner 0.1 µM)
Method in brief: as §1

| Cell Line | relative viability ([1]; first compound 0.08 µM) | relative viability ([1]; first compound 0.253 µM) | relative viability ([1]; first compound 0.8 µM) | relative viability ([1]; first compound 2.53 µM) | relative viability ([1]; first compound 8 µM) | relative viability ([2]; first compound 0.08 µM) | relative viability ([2]; first compound 0.253 µM) | relative viability ([2]; first compound 0.8 µM) | relative viability ([2]; first compound 2.53 µM) | relative viability ([2]; first compound 8 µM) | relative viability ([3]; first compound 0.08 µM) | relative viability ([3]; first compound 0.253 µM) | relative viability ([3]; first compound 0.8 µM) | relative viability ([3]; first compound 2.53 µM) | relative viability ([3]; first compound 8 µM) | relative viability ([4]; first compound 0.08 µM) | relative viability ([4]; first compound 0.253 µM) | relative viability ([4]; first compound 0.8 µM) | relative viability ([4]; first compound 2.53 µM) | relative viability ([4]; first compound 8 µM) |
| --- | --- | --- | --- | --- | --- | --- | --- | --- | --- | --- | --- | --- | --- | --- | --- | --- | --- | --- | --- | --- |
| LU99A | 0.311 | 0.301 | 0.35 | 0.292 | 0.296 | 0.391 | 0.314 | 0.251 | 0.297 | 0.37 | 0.613 | 0.559 | 0.552 | 0.528 | 0.522 | 0.289 | 0.267 | 0.272 | 0.323 | 0.273 |
| LXF-289 | 0.84 | 0.733 | 0.745 | 0.809 | 0.788 | 0.874 | 0.684 | 0.73 | 0.793 | 0.8 | 1.05 | 0.977 | 0.957 | 1.02 | 0.917 | 0.234 | 0.159 | 0.179 | 0.19 | 0.228 |
| NCI-H23 | 0.619 | 0.585 | 0.637 | 0.654 | 0.603 | 0.516 | 0.514 | 0.365 | 0.45 | 0.585 | 0.625 | 0.446 | 0.63 | 0.722 | 0.578 | 0.375 | 0.323 | 0.417 | 0.388 | 0.401 |
| NCI-H322M | 0.651 | 0.501 | 0.513 | 0.586 | 0.509 | 0.505 | 0.473 | 0.444 | 0.442 | 0.524 | 0.905 | 0.925 | 0.845 | 0.916 | 0.99 | 0.541 | 0.468 | 0.433 | 0.496 | 0.47 |
| NCI-H358 | 0.94 | 0.738 | 0.746 | 0.772 | 0.847 | 0.37 | 0.35 | 0.323 | 0.356 | 0.363 | 0.796 | 0.682 | 0.724 | 0.74 | 0.336 | 0.126 | 0.0956 | 0.0998 | 0.103 | 0.102 |
| NCI-H441 | 0.504 | 0.638 | 0.461 | 0.66 | 0.588 | 0.475 | 0.49 | 0.37 | 0.528 | 0.498 | 0.51 | 0.527 | 0.458 | 0.551 | 0.354 | 0.636 | 0.685 | 0.644 | 0.712 | 0.605 |
| NCI-H460 | 0.777 | 0.71 | 0.654 | 0.647 | 0.576 | 0.356 | 0.366 | 0.336 | 0.344 | 0.104 | 1.08 | 0.809 | 0.757 | 0.889 | 0.665 | 0.627 | 0.381 | 0.559 | 0.543 | 0.4 |
| NCI-H520 | 0.215 | 0.219 | 0.201 | 0.274 | 0.22 | 0.298 | 0.282 | 0.332 | 0.26 | 0.269 | 1.1 | 1.12 | 1.07 | 0.968 | 1.01 | 0.428 | 0.454 | 0.439 | 0.369 | 0.42 |
| NCI-H596 | 0.812 | 0.653 | 0.613 | 0.695 | 0.663 | 0.408 | 0.385 | 0.377 | 0.428 | 0.417 | 1.02 | 1.07 | 1.1 | 1.14 | 1.15 | 1.16 | 0.926 | 0.834 | 0.818 | 1.04 |
| NCI-H647 | 0.68 | 0.636 | 0.603 | 0.75 | 0.73 | 0.357 | – | 0.436 | 0.505 | 0.394 | 1.18 | 1.16 | 1.25 | 1.09 | 1.03 | 0.49 | 0.279 | 0.308 | 0.231 | 0.267 |
| NCI-H650 | 0.546 | 0.511 | 0.499 | 0.494 | 0.293 | 0.907 | 0.859 | 0.909 | 0.92 | 0.833 | 0.652 | 0.755 | 0.884 | 0.769 | 0.576 | 0.703 | 0.671 | 0.749 | 0.737 | 0.79 |
| NCI-H661 | 0.789 | 0.736 | 0.703 | 0.683 | 0.687 | 0.372 | 0.345 | 0.359 | 0.517 | 0.353 | 0.74 | 0.57 | 0.489 | 0.498 | 0.512 | 0.333 | 0.347 | 0.341 | 0.369 | 0.343 |
| NCI-H727 | 0.623 | 0.549 | 0.54 | 0.592 | 0.578 | 0.591 | 0.311 | 0.217 | 0.358 | 0.482 | 0.223 | 0.287 | 0.371 | 0.32 | 0.269 | 0.535 | 0.653 | 0.87 | 0.767 | 0.441 |
| NCI-H838 | 0.373 | 0.464 | 0.354 | 0.409 | 0.392 | 0.42 | 0.42 | 0.437 | 0.417 | 0.518 | 1.17 | 0.996 | 0.979 | 0.975 | 1.02 | 0.238 | 0.214 | 0.272 | 0.285 | 0.266 |
| NCI-H1355 | 0.386 | 0.46 | 0.423 | 0.459 | 0.452 | 0.423 | 0.433 | 0.401 | 0.473 | 0.441 | 0.951 | 0.79 | 0.839 | 0.863 | 0.817 | 0.629 | 0.608 | 0.627 | 0.595 | 0.641 |
| NCI-H1395 | 0.639 | 0.663 | 0.631 | 0.632 | 0.657 | 0.667 | 0.607 | 0.578 | 0.575 | 0.602 | 1.11 | 1.18 | 1.34 | 1 | 1.18 | 0.788 | 0.739 | 0.695 | 0.745 | 0.772 |
| NCI-H1437 | 0.93 | 0.899 | 0.889 | 0.961 | 0.813 | 0.489 | 0.419 | 0.47 | 0.507 | 0.56 | 1.14 | 1.06 | 0.99 | 1.01 | 1.03 | 0.421 | 0.392 | 0.407 | 0.408 | 0.287 |
| NCI-H1651 | 0.631 | 0.661 | 0.668 | 0.75 | 0.743 | 0.777 | 0.517 | 0.489 | 0.593 | 0.563 | 1.01 | 0.966 | 1.06 | 0.922 | 0.925 | 0.742 | 0.727 | 0.657 | 0.764 | 0.562 |
| NCI-H1666 | 0.897 | 0.838 | 0.793 | 0.827 | 0.847 | 0.459 | 0.383 | 0.358 | 0.42 | 0.479 | 0.876 | 0.831 | 0.74 | 0.84 | 0.673 | 0.621 | 0.628 | 0.609 | 0.657 | 0.434 |
| NCI-H1734 | 0.632 | 0.602 | 0.573 | 0.586 | 0.349 | 0.565 | 0.434 | 0.426 | 0.492 | 0.455 | 0.909 | 0.877 | 0.816 | 0.884 | 0.897 | 0.263 | 0.249 | 0.261 | 0.289 | 0.238 |
| NCI-H1755 | 0.705 | 0.74 | 0.786 | 0.689 | 0.703 | 0.407 | 0.44 | 0.446 | 0.47 | 0.246 | 1.08 | 0.969 | 0.954 | 1.05 | 0.991 | 0.608 | 0.539 | 0.555 | 0.615 | 0.577 |
| NCI-H1793 | 0.285 | 0.289 | 0.246 | 0.264 | 0.314 | 0.313 | 0.323 | – | 0.291 | 0.369 | 1.29 | 0.678 | – | 1.04 | 0.964 | 0.436 | 0.301 | 0.395 | 0.449 | 0.396 |
| NCI-H1915 | 0.59 | 0.667 | 0.649 | 0.634 | 0.628 | 0.883 | 0.97 | 0.856 | 0.95 | 0.952 | 1.06 | 1.14 | 1.13 | 1.08 | 1.14 | 0.471 | 0.445 | 0.463 | 0.436 | 0.437 |
| NCI-H1944 | 0.411 | 0.423 | 0.414 | 0.415 | 0.425 | 0.333 | 0.348 | 0.327 | 0.345 | 0.332 | 1.21 | 1.15 | 1.24 | 1.17 | 1.25 | 0.263 | 0.241 | 0.263 | 0.241 | 0.237 |
| NCI-H1975 | 0.784 | 0.721 | 0.767 | 0.68 | 0.784 | 0.327 | 0.299 | 0.268 | 0.305 | 0.286 | 1.02 | 0.913 | 0.92 | 0.918 | 0.908 | 0.772 | 0.753 | 0.754 | 0.736 | 0.686 |
| NCI-H1993 | 0.553 | 0.547 | 0.556 | 0.601 | 0.584 | 0.887 | 0.802 | 0.938 | 0.921 | 0.782 | 0.757 | 0.694 | 0.653 | 0.702 | 0.717 | 0.576 | 0.576 | 0.581 | 0.56 | 0.548 |
